Assay results as given in publication PMC3441706 (PLoS ONE, 2012).

Key:
HT-29 cells [1] = assay: Proliferation kinetics; format: cell-based, human
Procedure: HT-29 cells were plated (2×10^4 cells/well) in 24-well plates. After a recovery period of 24 hours, NVX-412 was added in fresh growth medium to final concentrations of 0, 300 and 1000 nM, respectively. After 24, 48 and 72 hours cell numbers were determined with a Z1 Coulter Particle Counter.

all cell lines tested = assay: β-galactosidase staining (cellular senescence); format: cell-based; conditions: data not shown
HCT116 cells = assay: DNA replication rate (BrdU incorporation ELISA); format: cell-based, human
Procedure: (§1) HeLa and HCT116 cells were plated in black 96-well plates. After cells were allowed to recover for 24 hours NVX-412 or CPT was added in fresh growth medium. After 24 hours of incubation a chemiluminescent BrdU Incorporation ELISA (Roche Applied Science, Penzberg, Germany) was performed with half of the plates according to the manufacturer’s protocol. Cells in the remaining plates were allowed to recover for 24 hours in normal growth medium before DNA replication was measured (wash-out experiment). To check whether a possible decline in DNA replication rate is not simply due to lower cell numbers because of cell death induction, the proportion of viable cells was determined in parallel by a MTT-based cytotoxicity assay according to the manufacturer’s protocol (EZ4U, Biomedica, Vienna, Austria). Colorimetric (at 492 and 620 nm) and chemiluminescent measurements were performed using a FLUOstar OPTIMA (BMG Labtech, Ortenberg, Germany).

HeLa cells = assay: DNA replication rate (BrdU incorporation ELISA); format: cell-based, human
Procedure: as §1

[2] = system: HCT116 p53+/+ or p53−/− cells; assay: Determination of p53 status dependency; format: cell-based, human; conditions: HCT116 p53+/+ vs p53−/−, 72 hours, viable cell numbers
Procedure: (§2) The isogenic colon carcinoma cells lines HCT116 p53+/+ or p53−/− and RKO p53+/+ or p53−/− were cultured in 12-well plates. After a recovery period of 24 hours, NVX-412 or Nutlin-3 was added in fresh growth medium at the indicated concentrations. […] After 24 or 72 hours cell numbers were determined with a Beckman Coulter ViCell XR.

[3] = system: RKO p53+/+ or p53−/− cells; assay: Determination of p53 status dependency; format: cell-based, human; conditions: RKO p53+/+ vs p53−/−, 72 hours, viable cell numbers
Procedure: as §2

HT-29 cells [4] = assay: Clonogenic assay; format: cell-based, human; conditions: HT-29, 14 days incubation
Procedure: (§3) For clonogenic assays, HT-29 and HepG2 cells were plated in 60 mm dishes at a density of 1000 cells per dish. After 24 hours NVX-412 was added at the indicated concentrations. After cultivation for 12–14 days (when assessable colonies were visible), colonies were fixed in 70% ethanol, stained with 0.5% Crystal Violet and counted manually.

HepG2 cells = assay: Clonogenic assay; format: cell-based, human; conditions: HepG2, 12 days incubation
Procedure: as §3

γH2AX (Ser139) = assay: Immunofluorescence staining and quantification of γH2AX in HeLa cells; format: cell-based, human
Procedure: HCT116 and HeLa cells were seeded on glass cover slips in 6-well plates. 24 hours after plating, HCT116 cells were incubated with 0.15, 0.5 and 1 µM NVX-412 and 1 µM CPT for 24 hours for staining of p-p53. For investigating γH2AX, HeLa cells were incubated with 0.21, 0.5 and 1 µM NVX-412 and 1 µM CPT for 3 or 24 hours. Additionally, cells were allowed to recover for 24 hours in normal growth medium after 24 hours of incubation with NVX-412 or CPT (wash-out experiment). After the respective treatments, cells were washed and fixed with 4% methanol-free formaldehyde (Polysciences Inc. Warrington, PA, USA) for 15 minutes at room temperature and then permeabilized with 0.2% Triton X-100/PBS for 2 minutes at room temperature. After blocking with goat serum (5%) in 1% BSA/0.3% Triton X-100/PBS, the respective primary antibody was added and cells were incubated at 4°C overnight. Antibodies used were: mouse p-p53 (Ser15) (Cell Signaling Technology, Danvers, MA, USA) at 1∶100 dilution and mouse p-H2AX (Ser139) (Millipore, Billerica, MA, USA) at 1∶1000 dilution in 1% BSA/PBS, respectively. Cells were then washed 3 times for 10 minutes with 0.25% BSA/0.1% Triton X-100/PBS and incubated with the Alexa Fluor 488 conjugated secondary anti-mouse antibody (1∶1000 in 0.25% BSA/0.1% Triton X-100/PBS) for 1 hour at room temperature in the dark. Cells were washed 3 times for 10 minutes with 0.05% Tween-20/PBS containing Hoechst 33342 (Sigma Aldrich, Vienna, AUT) and mounted with mounting medium (Fluoprep, bioMérieux, Marcy l'Etoile, FRA). Fluorescence was immediately recorded on a Zeiss LSM700 laser scanning microscope.
The common procedure for assessing γH2AX induction is to count γH2AX foci. Since with NVX-412 and the positive control CPT γH2AX activation was that strong, no distinguishable and countable foci were seen. Therefore, the average γH2AX fluorescence intensity per nucleus was determined. To this end, γH2AX intensities within a certain field were measured using Quantity One –4.6.9 (Basic freeware version, Bio-Rad Laboratories, Hercules, CA, USA) and were divided by the number of nuclei in this field.

## O=C(NNc1nc2cc(F)ccc2n2cccc12)c1cnccn1 [NVX-412, Pyrazine-2-carboxylic acid N’- (7-fluoro-pyrrolo[1,2-α]quinoxalin-4-yl)-hydrazide-oxalic acid co-crystal]
HT-29 cells [1]; HT-29, 300 nM (IC50), after 2 days, compared to untreated control
  Proliferation of cells: significantly decreased
HT-29 cells [1]; HT-29, 1 µM, 3 days of treatment
  Cell numbers: cell numbers started to decline below the numbers of cells seeded
All cell lines tested
  β-galactosidase staining (senescence): negative in all cell lines tested
HCT116 cells; HCT116, 24 hours treatment
  DNA replication rate (BrdU incorporation): reduction of DNA replication
HCT116 cells; HCT116, 24 hours treatment then 24 hours in normal growth medium
  DNA replication rate after recovery (wash-out): the rate increased to normal levels
HeLa cells; 24 hours treatment
  DNA replication rate (BrdU incorporation): reduction of DNA replication
HeLa cells; 24 hours treatment then 24 hours in normal growth medium
  DNA replication rate after recovery (wash-out): the rate increased to normal levels
[2]
  p53 status dependency of sensitivity: the p53 status does not influence the sensitivity to NVX-412
[3]
  p53 status dependency of sensitivity: the p53 status does not influence the sensitivity to NVX-412
HT-29 cells [4]
  Clonogenic survival: reduced the ability of HepG2 and HT-29 cells to form colonies in a dose-dependent manner
HepG2 cells
  Clonogenic survival: reduced the ability of HepG2 and HT-29 cells to form colonies in a dose-dependent manner
γH2AX (Ser139); 3 hours
  γH2AX induction: Only a slight induction of γH2AX
γH2AX (Ser139); 24 hours treatment then 24 hours without drug
  γH2AX levels after recovery (wash-out): decreased to nearly basal levels
γH2AX (Ser139); 24 hours, 0.21, 0.5 and 1 µM
  γH2AX levels: elevated after a 24 hour treatment in a dose-dependent manner
γH2AX (Ser139); 24 hours, highest concentration tested, p-value <0.0001
  γH2AX staining increase (average fluorescence intensity per nucleus): up to 15 fold
